The text below walks through data of ChEMBL document CHEMBL3045624, “Quantitative structureactivity relationships for estimating the aryl hydrocarbon receptor binding affinities of resveratrol derivatives and the antioxidant activities of hydroxystilbenes” (Med Chem Res, 2010).

Assay [1] can be described thus: Antioxidant activity assessed as superoxide scavenging activity in riboflavin light-NBT system. It counts as functional.
A short description of assay [2]: Antioxidant activity assessed as time required to induce lipid oxidation by Rancimat method. Format: functional.
Assay [3] has as its system Radical scavenging activity. The assay is described as follows: Antioxidant activity assessed as inhibition of DPPH free radical formation. Set-up: concentration or dose not given beside the values. To be noted: dose or concentration not given here. Format: functional. A general note: DPPH is a stable violet radical that fades when it is reduced.
Assay [4] in a line: Antioxidant activity assessed as time required to inhibit Cu2+-induced human LDL peroxidation. It counts as functional.
Assay [5] can be described thus: Antioxidant activity assessed as inhibition rate constant in AAPH-induced human LDL peroxidation. It counts as functional.
The nature of assay [6]: Antioxidant activity assessed as time required to inhibit AAPH-induced human LDL peroxidation. It counts as functional.
For assay [7], the target named is T1, Aryl hydrocarbon receptor (Homo sapiens, UniProt P35869).
T1 sequence (P35869 whole entry): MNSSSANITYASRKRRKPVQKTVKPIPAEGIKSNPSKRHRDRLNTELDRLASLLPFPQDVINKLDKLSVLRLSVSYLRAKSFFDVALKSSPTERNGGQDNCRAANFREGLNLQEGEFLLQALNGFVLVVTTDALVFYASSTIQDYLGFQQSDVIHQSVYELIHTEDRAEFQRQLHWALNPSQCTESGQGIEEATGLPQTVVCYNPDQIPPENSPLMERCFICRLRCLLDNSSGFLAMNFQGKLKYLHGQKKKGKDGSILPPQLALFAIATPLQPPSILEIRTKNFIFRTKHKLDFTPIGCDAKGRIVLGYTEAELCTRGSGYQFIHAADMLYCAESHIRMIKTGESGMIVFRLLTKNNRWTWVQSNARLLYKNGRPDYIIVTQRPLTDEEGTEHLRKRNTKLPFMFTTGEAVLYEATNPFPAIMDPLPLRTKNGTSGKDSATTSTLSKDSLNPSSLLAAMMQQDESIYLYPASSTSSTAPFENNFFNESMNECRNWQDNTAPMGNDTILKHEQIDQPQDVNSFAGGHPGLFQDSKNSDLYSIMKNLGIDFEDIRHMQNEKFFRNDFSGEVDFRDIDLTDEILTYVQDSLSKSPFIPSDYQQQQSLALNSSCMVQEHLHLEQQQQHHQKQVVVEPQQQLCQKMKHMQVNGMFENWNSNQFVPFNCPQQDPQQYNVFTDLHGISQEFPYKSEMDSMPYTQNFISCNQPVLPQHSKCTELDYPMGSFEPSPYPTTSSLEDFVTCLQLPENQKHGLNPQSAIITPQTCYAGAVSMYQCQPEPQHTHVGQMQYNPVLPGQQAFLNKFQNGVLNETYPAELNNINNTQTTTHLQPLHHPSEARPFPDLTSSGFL
Description: Binding affinity to aryl hydrocarbon receptor (unknown origin). To be noted: read-out: Ki(app).

Assay [8] is described as follows: Antioxidant activity assessed as inhibition rate constant for reaction with peroxyl radicals. Format: functional.
A short description of assay [9]: Antioxidant activity in CTAB micelles assessed as inhibition rate constant for AAPH-induced linoleic acid peroxidation. It counts as functional.
Assay [10] in a line: Antioxidant activity in CTAB micelles assessed as time required to inhibit AAPH-induced linoleic acid peroxidation. It counts as functional.
The nature of assay [11]: Antioxidant activity in SDS micelles assessed as inhibition rate constant for AAPH-induced linoleic acid peroxidation. Format: functional.
Assay [12] in a line: Antioxidant activity in SDS micelles assessed as time required to inhibit AAPH-induced linoleic acid peroxidation. It counts as functional.
Another assay deals with Liver microsome. The assay is described as follows: Antioxidant activity in Rattus norvegicus Wistar (rat) liver microsomes assessed as inhibition of Fe2+/ascorbate-induced lipid peroxidation incubated for 10 min prior to Fe2+/ascorbate induction measured after 60 min by TBARS assay. Format: functional. On the technique in general: Liver microsomes are a subcellular fraction often used to study metabolism.

Assay [13] in a line: Antioxidant activity assessed as decrease in initial quantity of DPPH measured up to 6 hr by spectrophotometric analysis. Format: functional.

In brackets after ≈: the same amount, converted by molar mass.

For the molecule `Oc1cc(/C=C/c2cc(O)c(O)c(Br)c2)cc(O)c1O`, in [1], the IC50 amounted to 8.1 µg/mL (≈ 23.9 µM).
Take `Oc1cc(O)cc(/C=C/c2cc(O)cc(O)c2)c1`: the TIME in [2] was determined as 3.7 h. Besides, the inhibition in assay [3] came out at 46.5%.
As to `Oc1ccc(/C=C/c2ccc(O)c(O)c2)cc1O`, the TIME was determined as 1.78 h in assay [4] and 0.85 h in assay [6]. Besides, the INH in [5] was found to be 3.7 ×10⁵ L/mol/s.
With `COc1ccc(/C=C\c2cc(Cl)cc(Cl)c2)cc1`, the Ki in [7] turned out to be 0.012 µM.
With `Oc1ccc(/C=C/c2ccccc2)c(O)c1`, the TIME was found to be 0.883 h in assay [4] and 0.292 h in assay [6]. Also, in assay [5], the INH was found to be 6.2 ×10⁵ L/mol/s.
For `COc1cc(/C=C/c2ccc(O)c(OC)c2)ccc1O`, the TIME in assay [4] is 1.47 h; in assay [6] it was 0.85 h. The INH in assay [5] stood at 4.1 ×10⁵ L/mol/s.
Take `Oc1ccc(/C=C/c2cc(O)c(O)c(O)c2)cc1O`: in assay [1], the IC50 was 3 µg/mL (≈ 11.5 µM).
For the molecule `COc1cc(/C=C\c2cc(C(C)(C)C)c(O)c(C(C)(C)C)c2)cc(OC)c1`, the INH in assay [8] amounted to 2.3 ×10⁴ L/mol/s.
For `O=C(/C=C/c1ccc(O)c(O)c1)Oc1cc(O)cc(/C=C/c2ccc(O)cc2)c1`, the IC50 in [1] came to 9.2 µg/mL (≈ 23.6 µM).
Take `Oc1cc(/C=C/c2ccccc2)cc(O)c1O`: the INH in assay [9] stood at 1.3 ×10⁴ L/mol/s; in assay [11], 3.1 ×10⁴ L/mol/s. Besides, the values for the TIME in assay [10] and in assay [12] were 2.9 ×10³ s and 2.4 ×10³ s, respectively.
For `Oc1ccc(/C=C/c2ccccc2)cc1O`, the INH in assay [9] came out at 0.9 ×10⁴ L/mol/s; in assay [11], 2.9 ×10⁴ L/mol/s; in assay [5] it was 4.9 ×10⁵ L/mol/s. Also, the TIME in assay [10] amounted to 4.1 ×10³ s; in assay [4], 1.77 h; in assay [6], 0.65 h; in assay [12], 4.9 ×10³ s.
`Oc1ccc(/C=C/c2cc(O)c(O)c(O)c2)cc1`: the TIME in assay [2] stood at 43 h. Besides, in assay [3], the inhibition turned out to be 92.9%.
As to `COc1cc(/C=C/c2ccc(O)c(OC)c2)cc(OC)c1`, the INH in assay [8] came out at 10 ×10⁴ L/mol/s.
In the case of `Oc1ccc(/C=C/c2ccc(O)cc2O)cc1`, the TIME in [4] stood at 0.717 h; in assay [6], 0.458 h. For the same molecule, the INH in assay [5] came out at 3.3 ×10⁵ L/mol/s.
As for `CCCCOc1ccc(/C=C\c2cc(OC)cc(OC)c2)cc1`, the Ki in assay [7] is 0.012 µM.
Take `Oc1cc(O)cc(/C=C/c2ccc(O)c(O)c2)c1`: the TIME in assay [2] came out at 60.3 h. Moreover, in assay [3], the inhibition was 67.1%.
With `COc1cc(/C=C/c2cc(C(C)(C)C)c(O)c(C(C)(C)C)c2)cc(OC)c1`, in assay [8], the INH is 6.8 ×10⁴ L/mol/s.
In the case of `CCOc1ccc(/C=C\c2cc(OC)cc(OC)c2)cc1`, in [7], the Ki came to 0.012 µM.
Regarding `Oc1ccc(/C=C\c2cc(O)cc(O)c2)cc1` [CIS-RESVERATROL], the INH in assay [8] is 7.4 ×10⁴ L/mol/s. Further, in the assay on Liver microsome, the EC50 worked out at 241 µM.
As for `Oc1cc(O)cc(/C=C/c2cc(O)c(O)c(O)c2)c1`, in [2], the TIME worked out at 48.1 h. In assay [3], the inhibition amounted to 92.9%.
As for `O=C(Oc1cc(O)cc(/C=C/c2ccc(O)cc2)c1)c1cc(O)c(O)c(O)c1`, the half-maximal inhibitory concentration (IC50) in [1] came out at 16 µg/mL (≈ 42.1 µM).
As to `Oc1ccc(/C=C/c2ccc(O)cc2)cc1`, the INH was determined as 0.8 ×10⁴ L/mol/s in [9], 1.4 ×10⁴ L/mol/s in [11] and 8.2 ×10⁵ L/mol/s in assay [5]. In addition, the TIME stood at 2.6 ×10³ s in assay [10], 1.28 h in [4], 0.308 h in assay [6] and 3.2 ×10³ s in assay [12].
Turning to `COc1cc(/C=C\c2ccc(O)c(O)c2)cc(OC)c1`, the INH in assay [8] was 76 ×10⁴ L/mol/s.
Consider `COc1cc(/C=C/c2ccc(O)cc2)cc(OC)c1` [PTEROSTILBENE], for which the concentration giving a half-maximal response (EC50) is 30.1 µM in [13] and 355 µM with Liver microsome. Further, the INH in assay [8] was 13 ×10⁴ L/mol/s.
As for `COc1cc(/C=C/c2cc(O)c(O)c(C(C)(C)C)c2)cc(OC)c1`, the INH in [8] came out at 240 ×10⁴ L/mol/s.
Still for that read-out and setting: for `COc1cc(/C=C/c2ccc(O)c(O)c2)cc(OC)c1` the value was 110 ×10⁴ L/mol/s.
Turning to `Oc1ccc(/C=C/c2ccc(O)c(O)c2)cc1`, the TIME is 5.1 ×10³ s in assay [10], 1.75 h in assay [4], 0.62 h in assay [6] and 7.2 ×10³ s in assay [12]. Further, the INH in assay [5] amounted to 4.2 ×10⁵ L/mol/s.
For `Clc1ccc(/C=C\c2cc(Cl)cc(Cl)c2)cc1`, the Ki in assay [7] came out at 0.012 µM.
Consider `Oc1cc(O)cc(/C=C/c2ccccc2)c1`, for which the INH came to 0.5 ×10⁴ L/mol/s in assay [9], 1.7 ×10⁴ L/mol/s in assay [11] and 3.3 ×10⁵ L/mol/s in assay [5]. Moreover, the TIME in [10] was determined as 2.4 ×10³ s; in assay [4], 0.717 h; in [6], 0.362 h; in assay [2], 2.3 h; in assay [12], 1.5 ×10³ s. The inhibition in assay [3] turned out to be 29.8%.
Turning to `COc1ccc(/C=C\c2cc(OC)cc(OC)c2)cc1` [8Z-3,4',5-TRIMETHOXYSTILBENE], in assay [7], the Ki was found to be 0.012 µM.
On to `Oc1cc(/C=C/c2cc(O)c(O)c(O)c2)cc(O)c1O`, for which the IC50 in [1] is 0.9 µg/mL (≈ 3.26 µM).
Turning to `COc1ccc(/C=C/c2cc(O)cc(O)c2)cc1` [RESVERATROL 4'-METHYL ETHER], the results for the EC50 (in [13]; with Liver microsome) were 48.6 µM and 661 µM, respectively.
Take `COc1cc(/C=C\c2ccc(O)cc2)cc(OC)c1`: in assay [8], the INH came out at 6.3 ×10⁴ L/mol/s.
For the molecule `Oc1ccc(/C=C/c2cc(O)cc(O)c2)cc1` [RESVERATROL], the INH in assay [9] was 0.7 ×10⁴ L/mol/s; in assay [11] it was 1.3 ×10⁴ L/mol/s; in assay [5] it was 4.4 ×10⁵ L/mol/s; in assay [8] it was 14 ×10⁴ L/mol/s. Besides, the TIME in assay [10] was found to be 2.7 ×10³ s; in assay [4], 0.967 h; in assay [6] it was 0.397 h; in [2], 12.3 h; in assay [12], 3.1 ×10³ s. For the same molecule, in assay [1], the IC50 was 106 µg/mL (≈ 464 µM). In assay [3], the inhibition was 55.1%. The 50% effective concentration (EC50) in the assay with Liver microsome amounted to 135 µM.
For the molecule `O=C(/C=C/c1cc(O)c(O)c(O)c1)Oc1cc(O)cc(/C=C/c2ccc(O)cc2)c1`, the half-inhibitory concentration (IC50) in assay [1] is 10 µg/mL (≈ 24.6 µM).
For the molecule `Oc1ccc(/C=C/c2ccccc2)cc1`, the INH in assay [9] worked out at 1 ×10⁴ L/mol/s; in assay [11], 1.2 ×10⁴ L/mol/s. Moreover, the values for the TIME in assay [10] and in assay [12] were 1.7 ×10³ s and 2.1 ×10³ s, respectively.
For the molecule `COc1cc(/C=C\c2ccc(O)c(OC)c2)cc(OC)c1`, in [8], the INH is 5.7 ×10⁴ L/mol/s.

One may read the IC50 as the concentration that gives 50% inhibition. For orientation: inhibition means the share of the control response that was lost under treatment. For orientation: EC50 means the concentration that produces a half-maximal response.
